# Test results: patent US6518253B1, “Treatment of viral infections using the L-isomer of ribavirin” (priority 1999, dated 2003)
# pEC50: −log10 of the molar value. Read-outs that look alike come from different tables or passages of the source.
# Columns and labels:
# Influenza (INFL) A = type: cell-based; details: read-out: Dir.Antiviral activity (EC50) INFL.A
# [1] = tested on: cells infected with Parainfluenza 1
# cells infected with HIV = details: cells of the HIV test; Ribavirin value from previous data (McCormick, Lancet); read-out: Cytotoxicity (CC50) HIV; cited from earlier work
# Hepatitis B (HBV) = type: cell-based; details: read-out: Dir.Antiviral activity (EC50) HBV
# Influenza (INFL) B = assay: microbe, parasite or virus in culture; type: cell-based; details: read-out: Dir.Antiviral activity (EC50) INFL.B
# Parainfluenza (PARA) 3 = type: cell-based, Parainfluenza 3; details: read-out: Dir.Antiviral activity (EC50) PARA 3
# [2] = tested on: Concanavalin A Induced Hepatitis; assay: Concanavalin A induced hepatitis, serum ALT; details: BALB/c mice, single i.p. dose 20 μg (1 mg/kg) 1 hr prior to i.v. 0.3 mg Con A; serum after 24 hr; PBS control about 1900 U/ml
# [3] = tested on: SEB stimulated T cell expression of the TH1 cytokines IL-2, IFN-γ, and TNF-α; type: cell-based, human
# [4] = tested on: cells infected with Parainfluenza 3
# [5] = tested on: cells infected with Influenza A; assay: Cytotoxicity assay, influenza A test; type: cell-based; details: cells of the Influenza A test; read-out: Cytotoxicity (CC50) INFL.A
# Protocol: (§1) In vitro testing for direct antiviral activity of Levovirin™ and Ribavirin against influenza A and B, parainfluenza 1 and 2, and respiratory syncytial virus were performed as described in Huffinan, J. H. et al. Antiviral Chem. and Chemother. 1997, 8: 75-83 and Barnard, D. L. et al. Antiviral Chem. and Chemother 1997, 8: 223-233. Anti-human immunodeficiency virus activity was assessed by the National Cancer Institute using a procedure designed to detect agents acting at any stage of the virus reproductive cycle [Weislow, O. W. et al., J. Natl. Cancer Inst. 1989, 81: 577-586]. Anti-hepatitis B (HBV) activity was monitored by using an assay as described by Marion et al., Hepatology 1987, 7: 724-731. Anti-HIV activity and cytotoxicity for Ribavirin was determined from previous data [McCormick, J. B., Lancet, 1998, II: 1367-1369.
# [6] = Four-week oral toxicity in rats; details: oral administration, 180 mg/kg over four weeks
# Parainfluenza (PARA) 1 = type: cell-based, Parainfluenza 1; details: read-out: Dir.Antiviral activity (EC50) PARA 1
# [7] = tested on: cells infected with Influenza B; assay: Cytotoxicity assay, influenza B test; type: cell-based; details: cells of the Influenza B test; read-out: Cytotoxicity (CC50) INFL.B
# Protocol: as §1
# [8] = tested on: respiratory syncytial virus (RSV); type: cell-based; details: read-out: Dir.Antiviral activity (EC50) RSV
# [9] = rat, in vivo, po, 180 mg/kg
# [10] = Cytotoxicity assay, influenza A test; type: cell-based; details: cells infected with Influenza A (cell line not given); cells of the Influenza A test; read-out: Cytotoxicity (CC50) INFL.A
# Protocol: as §1
# [11] = Cytotoxicity assay, influenza B test; type: cell-based; details: cells infected with Influenza B (cell line not given); cells of the Influenza B test; read-out: Cytotoxicity (CC50) INFL.B
# Protocol: as §1
compound,measurement,setting,value
"1-(5-Deoxy-β-D-ribo-furanosyl)-1,2,4-triazole-3-carboxamide [Ribavirin]",CC50,cells infected with HBV,53 µM
same,pEC50,Influenza (INFL) A,5.21
same,CC50,[1],> 1000 µM
same,CC50,cells infected with HIV,> 40 µM
same,pEC50,Hepatitis B (HBV),< 4.00
same,pEC50,Influenza (INFL) B; Influenza B,5.72
same,pEC50,Parainfluenza (PARA) 3,5.40
same,Con A induced serum ALT level,[2],969 U/ml
same,"IFN-γ, mean percentage of activated control",[3],131 ± 6 percentage of activated control
same,"IL-2, mean percentage of activated control",[3],143 ± 18 percentage of activated control
same,"TNF-α, mean percentage of activated control",[3],124 ± 4 percentage of activated control
same,CC50,[4],480 µM
same,CC50,[5],56 µM
same,"Clinical pathology (hemolytic anemia, leukopenia)",[6],produced significant hemolytic anemia and leukopenia
same,pEC50,Parainfluenza (PARA) 1,4.40
same,CC50,cells infected with RSV,100 µM
same,CC50,[7],> 100 µM
same,pEC50,[8],5.30
"NC(=O)c1ncn([C@H]2O[C@@H](CO)[C@H](O)[C@@H]2O)n1 [Levovirin™, 1-(β-L-ribofuranosyl)-1,2,4-triazole-3-carboxamide]","Clinical pathology (hemolytic anemia, leukopenia)",[9],did not produce any observable clinical pathology
same,pEC50,Influenza (INFL) B; Influenza B virus,< 3.70
same,Con A induced serum ALT level,[2],954 U/ml
same,"IFN-γ, mean percentage of activated control",[3],122 ± 3 percentage of activated control
same,"IL-2, mean percentage of activated control",[3],131 ± 12 percentage of activated control
same,"TNF-α, mean percentage of activated control",[3],144 ± 7 percentage of activated control
same,CC50,[10],> 200 µM
same,CC50,[11],> 200 µM
